Earlier results in patent US20150209404A1, “CELLULAR BLOOD MARKERS FOR EARLY DIAGNOSIS OF ALS AND FOR ALS PROGRESSION” (YEDA RESEARCH AND DEVELOPMENT CO. LTD., priority 2010, published 2015).

Settings: ALS patients; Copaxone given daily; both drugs effective in treating MS

glatiramer acetate [Copaxone]
outcome of treatment in ALS: failed and were even detrimental
